Test results: PubChem BioAssay AID248 (DTP/NCI, 2004)
Values joined by “and” are separate entries in the source; they are usually repeats but may differ in a detail not shown here. Equal entries are not always repeated. Toxic doses and inconclusive results are not listed.

System: L1210 leukemia ip in BDF1 mice, survival T/C
Test: NCI In Vivo Anticancer Drug Screen. Data for tumor model L1210 Leukemia (intraperitoneal) in B6D2F1 (BDF1) mice
Conditions: endpoint: mean survival time, higher = longer survival
Procedure, shortened: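 Transplanted-tumor mice were given test agent; controls received vehicle only. Survival readings from the two groups were divided (treated over control).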

[1] = dose: 100.0 mg/kg/injection, schedule: Q01DX009 (ip), vehicle: Klucel (hydroxypropylcellulose) (HPC)
[2] = dose: 100.0 mg/kg/injection, schedule: Q04DX003 (ip), vehicle: Klucel (hydroxypropylcellulose) (HPC)
[3] = dose: 200.0 mg/kg/injection, schedule: Q01DX009 (ip), vehicle: Klucel (hydroxypropylcellulose) (HPC)
[4] = dose: 200.0 mg/kg/injection, schedule: Q04DX003 (ip), vehicle: Klucel (hydroxypropylcellulose) (HPC)
[5] = dose: 400.0 mg/kg/injection, schedule: Q04DX003 (ip), vehicle: Klucel (hydroxypropylcellulose) (HPC)
[6] = dose: 100.0 mg/kg/injection, schedule: Q04DX002 (ip), vehicle: Klucel (hydroxypropylcellulose) (HPC)
[7] = dose: 200.0 mg/kg/injection, schedule: Q04DX002 (ip), vehicle: Klucel (hydroxypropylcellulose) (HPC)
[8] = dose: 400.0 mg/kg/injection, schedule: Q04DX002 (ip), vehicle: Klucel (hydroxypropylcellulose) (HPC)
[9] = dose: 5.0 mg/kg/injection, schedule: Q01DX009 (ip), vehicle: saline with Tween-80
[10] = dose: 50.0 mg/kg/injection, schedule: Q01DX009 (ip), vehicle: saline with Tween-80
[11] = dose: 100.0 mg/kg/injection, schedule: Q01DX009 (ip), vehicle: saline with Tween-80
[12] = dose: 100.0 mg/kg/injection, schedule: Q04DX003 (ip), vehicle: saline with Tween-80
[13] = dose: 200.0 mg/kg/injection, schedule: Q04DX003 (ip), vehicle: saline with Tween-80
[14] = dose: 50.0 mg/kg/injection, schedule: Q01DX001 (ip), vehicle: saline
[15] = dose: 100.0 mg/kg/injection, schedule: Q01DX001 (ip), vehicle: saline
[16] = dose: 200.0 mg/kg/injection, schedule: Q01DX001 (ip), vehicle: saline
[17] = dose: 400.0 mg/kg/injection, schedule: Q01DX001 (ip), vehicle: saline
[18] = dose: 100.0 mg/kg/injection, schedule: Q01DX001 (ip), vehicle: other
[19] = dose: 200.0 mg/kg/injection, schedule: Q01DX001 (ip), vehicle: other
[20] = dose: 12.5 mg/kg/injection, schedule: Q01DX009 (ip), vehicle: saline
[21] = dose: 25.0 mg/kg/injection, schedule: Q01DX009 (ip), vehicle: saline
[22] = dose: 50.0 mg/kg/injection, schedule: Q01DX009 (ip), vehicle: saline

`CC1C(C(=O)c2ccc(-c3ccccc3)cc2)N1c1ccccc1` (stereo not drawn) was tested, and the T/C (dose: 100.0 mg/kg/injection, schedule: Q01DX001 (ip), vehicle: Klucel (hydroxypropylcellulose) (HPC)) was 94 % of control and the T/C (dose: 400.0 mg/kg/injection, schedule: Q01DX001 (ip), vehicle: Klucel (hydroxypropylcellulose) (HPC)) was 94 % of control.
In the case of `CCCCCCCCCCCC(O)CCCC` (stereo not drawn), the T/C [1] is reported as 90 % of control, the T/C [2] is reported as 96 % of control and the T/C [3] is reported as 95 % of control. The T/C [4] was 91 % of control and the T/C [5] was 90 % of control.
For `COc1ccc(OC)c(CCO)c1`, the T/C (dose: 50.0 mg/kg/injection, schedule: Q01DX001 (ip), vehicle: carboxymethylcellulose (CMC)) was 93 % of control, the T/C (dose: 100.0 mg/kg/injection, schedule: Q01DX001 (ip), vehicle: carboxymethylcellulose (CMC)) was 98 % of control and the T/C (dose: 200.0 mg/kg/injection, schedule: Q01DX001 (ip), vehicle: carboxymethylcellulose (CMC)) was 91 % of control. The T/C (dose: 400.0 mg/kg/injection, schedule: Q01DX001 (ip), vehicle: carboxymethylcellulose (CMC)) was 93 % of control.
For `C1=C(c2ccccc2)N(CCc2ccccc2)C(c2ccccc2)=CN1Cc1ccccc1`, the T/C [6] was 96 % of control, the T/C [7] was 103 % of control and the T/C [8] was 92 % of control.
With `O=C1C=CC(=O)N1c1ccc(Cl)cc1Br` the T/C [9] was 91 % of control, the T/C (dose: 10.0 mg/kg/injection, schedule: Q01DX009 (ip), vehicle: saline with Tween-80) was 91 % of control and the T/C (dose: 20.0 mg/kg/injection, schedule: Q01DX009 (ip), vehicle: saline with Tween-80) was 91 % of control.
With `CN(C)P(=O)(N(C)C)N1CC1` the T/C (dose: 0.75 mg/kg/injection, schedule: Q01DX009 (ip), vehicle: saline) was 98 % of control, the T/C (dose: 1.5 mg/kg/injection, schedule: Q01DX009 (ip), vehicle: saline) was 103 % of control and the T/C (dose: 3.7 mg/kg/injection, schedule: Q01DX009 (ip), vehicle: saline) was 101 % of control. The T/C (dose: 3.75 mg/kg/injection, schedule: Q01DX009 (ip), vehicle: saline) was 98 % of control, the T/C (dose: 7.5 mg/kg/injection, schedule: Q01DX009 (ip), vehicle: saline) was 113 % of control and 115 % of control and the T/C (dose: 15.0 mg/kg/injection, schedule: Q01DX009 (ip), vehicle: saline) was 120 % of control. For the same compound, the T/C (dose: 30.0 mg/kg/injection, schedule: Q01DX001 (ip), vehicle: saline) was 111 % of control and the T/C (dose: 30.0 mg/kg/injection, schedule: Q01DX009 (ip), vehicle: saline) was 173 % of control.
With `Cc1ccc(S(=O)(=O)N2CCCC(Br)(Br)C(=O)c3ccccc32)cc1` the T/C [2] was 100 % of control, the T/C [4] was 97 % of control and the T/C [5] was 96 % of control.
In the case of `CC(C)(C)[CH2][Sn]([Br])([Br])[CH2]C(C)(C)C`, the T/C (dose: 9.38 mg/kg/injection, schedule: Q01DX001 (ip), vehicle: other) is reported as 98 % of control.
With `O=C(Nc1ccccc1F)OCCc1ccccn1` the T/C [6] was 102 % of control, the T/C [7] was 105 % of control and the T/C [8] was 91 % of control.
`CCCCCCCCCC1OOC1(C)C` (stereo not drawn) was tested, and the T/C (dose: 50.0 mg/kg/injection, schedule: Q01DX001 (ip), vehicle: water) was 97 % of control, the T/C (dose: 100.0 mg/kg/injection, schedule: Q01DX001 (ip), vehicle: water) was 93 % of control and the T/C (dose: 200.0 mg/kg/injection, schedule: Q01DX001 (ip), vehicle: water) was 93 % of control.
`O=C(CCCCCCCCC(=O)N/N=C/c1ccc(Cl)c(Cl)c1)N/N=C/c1ccc(Cl)c(Cl)c1` was tested, and the T/C [10] was 91 % of control, the T/C [11] was 93 % of control and the T/C [12] was 89 % of control. The T/C [13] was 89 % of control.
In the case of `NC(=O)/C=C/C(N)=O`, the T/C (dose: 25.0 mg/kg/injection, schedule: Q01DX009 (ip), vehicle: saline with Tween-80) is reported as 91 % of control, the T/C [10] is reported as 88 % of control and the T/C [11] is reported as 88 % of control. For the same compound, the T/C [12] was 89 % of control, the T/C [13] was 94 % of control and the T/C (dose: 400.0 mg/kg/injection, schedule: Q04DX003 (ip), vehicle: saline with Tween-80) was 92 % of control.
`CCCCCCc1cc2c(cc1CCCC)CCC2` was tested, and the T/C [14] was 95 % of control, the T/C [15] was 101 % of control and the T/C [16] was 98 % of control. The T/C [17] was 116 % of control.
`NNC(=S)Nc1ccccc1` was tested, and the T/C [9] was 98 % of control.
In the case of `c1cnon1`, the T/C [15] is reported as 102 % of control, the T/C [16] is reported as 102 % of control and the T/C [17] is reported as 95 % of control.
In the case of `O=C(C[n+]1cccc2ccccc21)c1ccc(-c2ccc(C(=O)C[n+]3cccc4ccccc43)cc2)cc1`, the T/C (dose: 0.13 mg/kg/injection, schedule: Q04DX003 (ip), vehicle: saline) is reported as 103 % of control, the T/C (dose: 0.25 mg/kg/injection, schedule: Q04DX003 (ip), vehicle: saline) is reported as 103 % of control and the T/C (dose: 0.5 mg/kg/injection, schedule: Q04DX003 (ip), vehicle: saline) is reported as 102 % of control.
In the case of `Cc1nc(N)c2c(ncn2C2OC(CO)C(O)C2O)n1` (stereo not drawn), the T/C [15] is reported as 100 % of control, the T/C [16] is reported as 108 % of control and the T/C [17] is reported as 105 % of control.
`O=C(OCCCCCCCOC(=O)c1cccc([N+](=O)[O-])c1)c1cccc([N+](=O)[O-])c1` was tested, and the T/C [18] was 98 % of control, the T/C [19] was 101 % of control and the T/C (dose: 400.0 mg/kg/injection, schedule: Q01DX001 (ip), vehicle: other) was 107 % of control.
For `C=C1C(=O)OC2C1C(OC(=O)/C(=C/C)COC(C)=O)CC1(CO1)C1C(OC(=O)/C(=C/C)CO)C3OC3(C)C21` (stereo not drawn), the T/C (dose: 3.12 mg/kg/injection, schedule: Q01DX009 (ip), vehicle: alcohol) was 110 % of control, the T/C (dose: 6.25 mg/kg/injection, schedule: Q01DX009 (ip), vehicle: alcohol) was 104 % of control and the T/C (dose: 12.5 mg/kg/injection, schedule: Q01DX009 (ip), vehicle: alcohol) was 96 % of control.
In the case of `O=C1C=C(NCCCCC2CCCCC2)c2ccccc2C1=O`, the T/C [15] is reported as 95 % of control, the T/C [16] is reported as 97 % of control and the T/C [17] is reported as 91 % of control.
`NNC(=O)c1ccccc1` was tested, and the T/C [20] was 100 % of control, the T/C [21] was 97 % of control and the T/C [14] was 90 % of control. For the same compound, the T/C [22] was 111 % of control, the T/C (dose: 50.0 mg/kg/injection, schedule: Q04DX003 (ip), vehicle: saline with Tween-80) was 97 % of control and the T/C [15] was 108 % of control. For the same compound, the T/C (dose: 100.0 mg/kg/injection, schedule: Q01DX009 (ip), vehicle: saline) was 100 % of control.
For `COc1c(NC(=O)Nc2ccc(SC)cc2)cccc1[N+](=O)[O-]`, the T/C [1] was 89 % of control, the T/C [3] was 98 % of control and the T/C (dose: 400.0 mg/kg/injection, schedule: Q01DX009 (ip), vehicle: Klucel (hydroxypropylcellulose) (HPC)) was 93 % of control.
For `CC(C)c1ccc(NC(=S)NC(=O)c2ccccc2)cc1`, the T/C (dose: 100.0 mg/kg/injection, schedule: Q04DX002 (ip), vehicle: gum acacia) was 103 % of control, the T/C (dose: 200.0 mg/kg/injection, schedule: Q04DX002 (ip), vehicle: gum acacia) was 100 % of control and the T/C (dose: 400.0 mg/kg/injection, schedule: Q04DX002 (ip), vehicle: gum acacia) was 92 % of control.
With `CN(N=O)C(=O)NC1C=CCCC1` (stereo not drawn) the T/C (dose: 12.5 mg/kg/injection, schedule: Q01DX001 (ip), vehicle: other) was 104 % of control, the T/C (dose: 25.0 mg/kg/injection, schedule: Q01DX001 (ip), vehicle: other) was 95 % of control and the T/C (dose: 50.0 mg/kg/injection, schedule: Q01DX001 (ip), vehicle: other) was 97 % of control. For the same compound, the T/C [18] was 96 % of control and the T/C [19] was 104 % of control.
For `CC(O)C#CC#CC(C)O` (stereo not drawn), the T/C [20] was 103 % of control, the T/C (dose: 12.5 mg/kg/injection, schedule: Q04DX002 (ip), vehicle: saline) was 113 % of control and the T/C [21] was 109 % of control. The T/C (dose: 25.0 mg/kg/injection, schedule: Q04DX002 (ip), vehicle: saline) was 109 % of control, the T/C [22] was 101 % of control and the T/C (dose: 50.0 mg/kg/injection, schedule: Q04DX002 (ip), vehicle: saline) was 94 % of control.
`COC(=O)C1C2C(C)CC3(CC12C)OCCO3` (stereo not drawn) was tested, and the T/C (dose: 100.0 mg/kg/injection, schedule: Q01DX009 (ip), vehicle: saline sonified) was 92 % of control, the T/C [2] was 102 % of control and the T/C (dose: 200.0 mg/kg/injection, schedule: Q01DX009 (ip), vehicle: saline sonified) was 97 % of control. For the same compound, the T/C [4] was 93 % of control, the T/C (dose: 400.0 mg/kg/injection, schedule: Q01DX009 (ip), vehicle: saline sonified) was 92 % of control and the T/C [5] was 86 % of control.
